In patent publication US20170073306A1, “POTENT INHIBITORS OF HUMAN CARBONIC ANHYDRASE II AND BOVINE CARBONIC ANHYDRASE II AND THEIR MECHANISM OF ACTION” (priority 2015, published 2017):

System: not listed separately
Test: MTT cytotoxicity assay
Assay type: cell-based
Details: mouse, 3T3 mouse fibroblast cells, 3T3 cells, 50% growth inhibition, read-out: Cytotoxicity IC50 ± SD
Protocol: Cytotoxicity studies were performed using a colorimetric assay that measures the reduction of 3-(4,5-dimethythiazol-2-yl)-2,5-diphenyl tetrazolium bromide (MTT) (yellow in color), by mitochondrial enzyme (i.e. succinate dehydrogenase). The MTT enters into the mitochondria of cell, where it is reduced to an insoluble formazan salt (purple in color). The extent of MTT reduction to formazan within cells was measured spectrophotometrically. As reduction of MTT can only occur in metabolically active cells the level of activity is actually a measure of the viability of the cells^22.
Mouse fibroblast cell line 3T3 was cultured in DMEM, supplemented with 5% of FBS, 100 IU/ml of penicillin and 100 μg/ml of streptomycin, and kept at 37° C. in 5% CO2 incubator. For the preparation of cell culture 100 μL/well of cell solution (5×10^4 cells/ml) was added into 96-well plate. The plate was incubated for overnight, and fresh medium was added after the removal of old medium. The test compounds were also added in different concentrations into the plate and plate was again incubated for 48 hrs. After the completion of this incubation period 200 μL MTT (0.5 mg/ml) was added and plate was again incubated for 4 hrs, after this final incubation 100 μL of DMSO was added to each well. The level of MTT reduction to formazan was evaluated by change in absorbance at 540 nm using a micro plate reader (Spectra Max plus, Molecular Devices, CA, USA).

Row | Structure (SMILES) | IC50 at 48 h
1 | NS(=O)(=O)c1ccc(NC(=S)NC(=O)c2cccc([N+](=O)[O-])c2)cc1 [Compound 6, 3-Nitro-N-(4-sulfamoylphenylcarbamothioyl)benzamide] | > 30 µM
2 | NS(=O)(=O)c1ccc(NC(=S)NC(=O)C2CCCO2)cc1 (stereo not drawn) [Compound 17, N-(4-Sulfamoylphenylcarbamothioyl)tetrahydrofuran-2-carboxamide] | > 30 µM
3 | NS(=O)(=O)c1ccc(NC(=S)NC(=O)c2ccc(Cl)cc2[N+](=O)[O-])cc1 [Compound 12, 4-Chloro-2-nitro-N-(4-sulfamoylphenylcarbamothioyl)benzamide] | > 30 µM
4 | COc1cc(OC)cc(C(=O)NC(=S)Nc2ccc(S(N)(=O)=O)cc2)c1 [Compound 16, 3,5-Dimethoxy-N-(4-sulfamoylphenylcarbamothioyl)benzamide] | > 30 µM
5 | NS(=O)(=O)c1ccc(NC(=S)NC(=O)c2ccccc2)cc1 [Compound 1, N-(4-Sulfamoylphenylcarbamothioyl)benzamide] | > 30 µM

Target: T1, Bovine Carbonic Anhydrase-II (Bos taurus, UniProt P00921)
T1 construct: pure bovine erythrocyte CA-II; from tissue; host or cells: bovine erythrocytes
T1 sequence (P00921 whole entry): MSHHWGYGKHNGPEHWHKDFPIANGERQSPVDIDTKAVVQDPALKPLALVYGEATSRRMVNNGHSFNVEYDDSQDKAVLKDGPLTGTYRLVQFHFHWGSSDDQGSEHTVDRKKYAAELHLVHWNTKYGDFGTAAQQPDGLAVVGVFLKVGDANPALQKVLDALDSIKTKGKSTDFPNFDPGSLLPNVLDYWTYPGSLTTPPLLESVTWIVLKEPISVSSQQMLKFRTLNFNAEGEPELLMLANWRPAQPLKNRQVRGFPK
Test: Kinetics studies (Lineweaver-Burk, Dixon plots) against Bovine Carbonic Anhydrase-II
Assay type: biochemical
Set-up: Vmax app: unit not given here
Details: not given
Protocol: FIG. 2B depicts the double reciprocal plot for Ki determination which is between Slope Vs Inhibitor Conc.
FIG. 3B depicts the double reciprocal plot for Ki determination which is between Slope Vs Inhibitor Conc.
Kinetics studies were performed for each analogue. […] The Grafit version 7.0 was used for the construction of Lineveawer-Burk plots and their secondary replots.

Row | Structure (SMILES) | Ki
6 | NS(=O)(=O)c1ccc(NC(=S)NC(=O)c2ccccc2)cc1 [Compound 1, N-(4-Sulfamoylphenylcarbamothioyl)benzamide] | 0.052 µM

Same assay, conditions: Lineweaver-Burk / Dixon plots

Row | Type of Inhibition | Structure (SMILES)
7 | Mixed type | NS(=O)(=O)c1ccc(NC(=S)NC(=O)c2cccc([N+](=O)[O-])c2)cc1 [Compound 6, 3-Nitro-N-(4-sulfamoylphenylcarbamothioyl)benzamide]
8 | Mixed type | NS(=O)(=O)c1ccc(NC(=S)NC(=O)C2CCCO2)cc1 (stereo not drawn) [Compound 17, N-(4-Sulfamoylphenylcarbamothioyl)tetrahydrofuran-2-carboxamide]
9 | Mixed type | NS(=O)(=O)c1ccc(NC(=S)NC(=O)c2ccc(Cl)cc2[N+](=O)[O-])cc1 [Compound 12, 4-Chloro-2-nitro-N-(4-sulfamoylphenylcarbamothioyl)benzamide]
10 | Noncompetitive | COc1cc(OC)cc(C(=O)NC(=S)Nc2ccc(S(N)(=O)=O)cc2)c1 [Compound 16, 3,5-Dimethoxy-N-(4-sulfamoylphenylcarbamothioyl)benzamide]

Row | Structure (SMILES) | Type of Inhibition
11 | NS(=O)(=O)c1ccc(NC(=S)NC(=O)c2ccccc2)cc1 [Compound 1, N-(4-Sulfamoylphenylcarbamothioyl)benzamide] | Noncompetitive

Same assay, conditions: apparent Vmax with inhibitor (0.2-0.00625 μM)

Row | Vmax app | Structure (SMILES)
12 | 17.48 | NS(=O)(=O)c1ccc(NC(=S)NC(=O)c2cccc([N+](=O)[O-])c2)cc1 [Compound 6, 3-Nitro-N-(4-sulfamoylphenylcarbamothioyl)benzamide]
13 | 26.88 | NS(=O)(=O)c1ccc(NC(=S)NC(=O)C2CCCO2)cc1 (stereo not drawn) [Compound 17, N-(4-Sulfamoylphenylcarbamothioyl)tetrahydrofuran-2-carboxamide]
14 | 34.12 | NS(=O)(=O)c1ccc(NC(=S)NC(=O)c2ccc(Cl)cc2[N+](=O)[O-])cc1 [Compound 12, 4-Chloro-2-nitro-N-(4-sulfamoylphenylcarbamothioyl)benzamide]
15 | 37.31 | COc1cc(OC)cc(C(=O)NC(=S)Nc2ccc(S(N)(=O)=O)cc2)c1 [Compound 16, 3,5-Dimethoxy-N-(4-sulfamoylphenylcarbamothioyl)benzamide]

Same assay, conditions: enzyme Vmax without inhibitor

Row | Vmax | Structure (SMILES)
16 | 82.64 (μM/L/min)^−1 | NS(=O)(=O)c1ccc(NC(=S)NC(=O)c2cccc([N+](=O)[O-])c2)cc1 [Compound 6, 3-Nitro-N-(4-sulfamoylphenylcarbamothioyl)benzamide]
17 | 111.11 (μM/L/min)^−1 | NS(=O)(=O)c1ccc(NC(=S)NC(=O)C2CCCO2)cc1 (stereo not drawn) [Compound 17, N-(4-Sulfamoylphenylcarbamothioyl)tetrahydrofuran-2-carboxamide]
18 | 108.69 (μM/L/min)^−1 | NS(=O)(=O)c1ccc(NC(=S)NC(=O)c2ccc(Cl)cc2[N+](=O)[O-])cc1 [Compound 12, 4-Chloro-2-nitro-N-(4-sulfamoylphenylcarbamothioyl)benzamide]
19 | 72.46 (μM/L/min)^−1 | COc1cc(OC)cc(C(=O)NC(=S)Nc2ccc(S(N)(=O)=O)cc2)c1 [Compound 16, 3,5-Dimethoxy-N-(4-sulfamoylphenylcarbamothioyl)benzamide]

Row | Structure (SMILES) | Vmax
20 | NS(=O)(=O)c1ccc(NC(=S)NC(=O)c2ccccc2)cc1 [Compound 1, N-(4-Sulfamoylphenylcarbamothioyl)benzamide] | 99.00 (μM/L/min)^−1

Same assay, conditions: from secondary replots / Dixon plot; read-out: Ki

Row | Ki | Structure (SMILES)
21 | 0.09 µM | NS(=O)(=O)c1ccc(NC(=S)NC(=O)c2cccc([N+](=O)[O-])c2)cc1 [Compound 6, 3-Nitro-N-(4-sulfamoylphenylcarbamothioyl)benzamide]
22 | 0.059 µM | NS(=O)(=O)c1ccc(NC(=S)NC(=O)C2CCCO2)cc1 (stereo not drawn) [Compound 17, N-(4-Sulfamoylphenylcarbamothioyl)tetrahydrofuran-2-carboxamide]
23 | 0.024 µM | NS(=O)(=O)c1ccc(NC(=S)NC(=O)c2ccc(Cl)cc2[N+](=O)[O-])cc1 [Compound 12, 4-Chloro-2-nitro-N-(4-sulfamoylphenylcarbamothioyl)benzamide]
24 | 0.4 µM | COc1cc(OC)cc(C(=O)NC(=S)Nc2ccc(S(N)(=O)=O)cc2)c1 [Compound 16, 3,5-Dimethoxy-N-(4-sulfamoylphenylcarbamothioyl)benzamide]

Target: T2, Bovine Carbonic Anhydrase-II (bovine erythrocyte CA-II) (Bos taurus, UniProt P00921)
T2 construct: pure bovine erythrocyte CA-II; from tissue; host or cells: bovine erythrocytes
T2 sequence (P00921 whole entry): as above
Test: Bovine carbonic anhydrase-II inhibition, 4-nitrophenyl acetate spectrophotometric assay
Assay type: biochemical
Details: not given
Protocol: (§1) Nineteen different analogues of benzamide sulfonamides were evaluated for carbonic anhydrase-II inhibition. The rate of catalyzed reaction was monitored by the amount of product formation by using the chromogenic substrate i.e., 4-nitrophenyl acetate.
4-Nitrophenyl acetate (4-NPA) is a colorless compound which is used as a substrate in carbonic anhydrase inhibition assay. The reaction involves the hydrolysis of 4-nitrophenyl acetate into […] and 4-nitrophenol a yellow colored compound. During this experiment, HEPES-tris buffer was used at 20 mM concentration with pH 7.4.
After 15 min of incubation of the enzyme with the test compound, the substrate was added to initiate the reaction. The reaction was carried out in triplicate with different concentrations of test compounds was used.
In this assay protocol, the reaction was performed by using a 96-well flat bottom plate.
The amount of product formation was measured at 400 nm for 30 min with 1 min interval, multiplate reader SPECTRA max 340 (Molecular Devices, CA, USA) was used to monitor the product formation.
The enzyme inhibitory activities were calculated using the following formula:
% Inhibition=100−(O.D of test/O.D of control)*100
(§2) Where test is the enzyme activity with sample and control is the enzyme activity without sample. The IC50 of the compounds were calculated by using EZ-Fit Enzyme Kinetic Program (Perrella Scientific Inc. Amhrest, U.S.A).

Row | Structure (SMILES) | IC50
25 | NS(=O)(=O)c1ccc(NC(=S)NC(=O)c2ccccc2)cc1 [Compound 1, N-(4-Sulfamoylphenylcarbamothioyl)benzamide] | 0.09 ± 0.007 µM

Same assay, conditions: 4-nitrophenyl acetate 0.7 mM, pH 7.4, 15 min preincubation; read-out: IC50 ± S.E.M. BCA-II

Row | IC50 | Structure (SMILES)
26 | 0.08 ± 0.004 µM | NS(=O)(=O)c1ccc(NC(=S)NC(=O)c2cccc([N+](=O)[O-])c2)cc1 [Compound 6, 3-Nitro-N-(4-sulfamoylphenylcarbamothioyl)benzamide]
27 | 0.12 ± 0.02 µM | NS(=O)(=O)c1ccc(NC(=S)NC(=O)C2CCCO2)cc1 (stereo not drawn) [Compound 17, N-(4-Sulfamoylphenylcarbamothioyl)tetrahydrofuran-2-carboxamide]
28 | 0.28 ± 0.007 µM | NS(=O)(=O)c1ccc(NC(=S)NC(=O)c2ccc(Cl)cc2[N+](=O)[O-])cc1 [Compound 12, 4-Chloro-2-nitro-N-(4-sulfamoylphenylcarbamothioyl)benzamide]
29 | 0.11 ± 0.005 µM | COc1cc(OC)cc(C(=O)NC(=S)Nc2ccc(S(N)(=O)=O)cc2)c1 [Compound 16, 3,5-Dimethoxy-N-(4-sulfamoylphenylcarbamothioyl)benzamide]

Target: T3, Human Carbonic Anhydrase-II (human erythrocyte CA-II) (Homo sapiens, UniProt P00918)
T3 construct: purified human erythrocyte CA-II; from tissue; host or cells: human erythrocytes
Test: HCA-II inhibitory activity, 4-nitrophenyl acetate spectrophotometric assay
Assay type: biochemical
Details: 4-nitrophenyl acetate 0.7 mM, pH 7.4, 25° C., 15 min preincubation; read-out: IC50 ± S.E.M. HCA-II
Protocol: as §1
Hydrolysis of 4-NPA (a colorless compound): yields 4-nitrophenol and […]. The reaction is monitored by quantifying the formation of 4-nitrophenol, a yellow colored compound.
In successive experiments, HEPES-tris was used as a buffer for the reaction at final concentration of 20 mM, with 7.4 pH. The total reaction volume of 200 μL includes, 140 μL of the HEPES-tris, 20 μL of test compound diluted in DMSO (20 μL of DMSO as a control sample), 20 μL of purified human erythrocyte CA-II (0.1 mg/mL) prepared in deionized water and 20 μL of a solution of 4-NPA (0.7 mM diluted in ethanol). Adhesion of enzyme with the plastic-ware was avoided by the addition of bovine serum albumin (1 mg/mL).
The 20 μL of test compound was incubated with enzyme for a period of 15 min. The rate of product formation was monitored with the addition of 20 μL substrate prepared in ethanol at a final concentration of 0.7 mM 4-nitrophenyl acetate at 25° C. for a period of 30 min with regular interval of 1 min.
The assay was performed in triplicates by using 96-well flat bottom plate.
The enzyme inhibitory activities were calculated using the following formula: […]
as §2

Row | IC50 | Structure (SMILES)
30 | 0.19 ± 0.001 µM | NS(=O)(=O)c1ccc(NC(=S)NC(=O)c2cccc([N+](=O)[O-])c2)cc1 [Compound 6, 3-Nitro-N-(4-sulfamoylphenylcarbamothioyl)benzamide]
31 | 0.27 ± 0.06 µM | NS(=O)(=O)c1ccc(NC(=S)NC(=O)C2CCCO2)cc1 (stereo not drawn) [Compound 17, N-(4-Sulfamoylphenylcarbamothioyl)tetrahydrofuran-2-carboxamide]
32 | 0.46 ± 0.03 µM | NS(=O)(=O)c1ccc(NC(=S)NC(=O)c2ccc(Cl)cc2[N+](=O)[O-])cc1 [Compound 12, 4-Chloro-2-nitro-N-(4-sulfamoylphenylcarbamothioyl)benzamide]
33 | 0.23 ± 0.03 µM | COc1cc(OC)cc(C(=O)NC(=S)Nc2ccc(S(N)(=O)=O)cc2)c1 [Compound 16, 3,5-Dimethoxy-N-(4-sulfamoylphenylcarbamothioyl)benzamide]
